The record followed here is the supplement of paper PMC10307832.

Common to all, as to test: relative viability (nuclei count vs DMSO), 5 days (fraction); higher = more cells survive
Compound in experiment [1]: CO[C@@H]1[C@H](N(C)C(=O)c2ccccc2)C[C@H]2O[C@]1(C)n1c3ccccc3c3c4c(c5c6ccccc6n2c5c31)C(=O)NC4 [Midostaurin] + CC(=O)Nc1cccc(-n2c(=O)n(C3CC3)c(=O)c3c(Nc4ccc(I)cc4F)n(C)c(=O)c(C)c32)c1 [Trametinib] (partner 0.02 µM)
The essentials: (§1)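 Cells from lung cancer lines were seeded into 1536-well plates and, one day later, dosed by pin tool. Treatments were either a single drug or a fixed dose of an anchor drug with five library-drug doses (not always all listed) in √10 steps. After 5 days, nuclei were stained in a one-step fixation (final 0.05% Triton X-100, 1% formaldehyde, 1 ug/ml Hoechst) and counted on 4× images, and relative viability is the treated-to-vehicle nuclei ratio, as the median of duplicate plates.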

Compound in experiment [2]: COc1cc(-c2nn([C@H]3CC[C@H](N4CCN(C(C)=O)CC4)CC3)c3ncnc(N)c23)ccc1NC(=O)c1cc2ccccc2n1C + NC(=O)Nc1cc(-c2cccc(F)c2)sc1C(=O)N[C@H]1CCCNC1 [AZD7762] (partner 0.2 µM)
The method in brief: as §1

Compound in experiment [3]: COc1cc(-c2nn([C@H]3CC[C@H](N4CCN(C(C)=O)CC4)CC3)c3ncnc(N)c23)ccc1NC(=O)c1cc2ccccc2n1C
The essentials:
(§2)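 Vehicle-anchored 1536-well plates of lung cancer cell lines, held overnight at 37 °C, were pinned with five library-drug doses (not always all listed) spaced by √10. No medium change followed over the next 5 days, after which the cells were fixed, permeabilised and Hoechst-stained together and imaged at 4×. Nuclei were counted with MetaXpress, and viability is treated-well nuclei over vehicle-well nuclei, taken as a median across plates. Plates passed with control CV below 25% and at least one doubling.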

Compound in experiment [4]: CO[C@@H]1[C@H](N(C)C(=O)c2ccccc2)C[C@H]2O[C@]1(C)n1c3ccccc3c3c4c(c5c6ccccc6n2c5c31)C(=O)NC4 [Midostaurin]
The essentials: as §2

Compound in experiment [5]: COc1cc(-c2nn([C@H]3CC[C@H](N4CCN(C(C)=O)CC4)CC3)c3ncnc(N)c23)ccc1NC(=O)c1cc2ccccc2n1C + CC1(C)CCC(c2ccc(Cl)cc2)=C(CN2CCN(c3ccc(C(=O)NS(=O)(=O)c4ccc(N[C@H](CCN5CCOCC5)CSc5ccccc5)c(S(=O)(=O)C(F)(F)F)c4)cc3)CC2)C1 [Navitoclax] (partner 0.5 µM)
The method in brief: as §1

As to NCI-H1648, the relative viability in experiment [1] (first compound 0.01 µM) worked out at 0.532; in experiment [1] (first compound 0.3162 µM) it was 0.432; in experiment [2] (first compound 0.0128 µM), 0.686; in experiment [2] (first compound 0.04048 µM), 0.609; in experiment [2] (first compound 0.128 µM), 0.75; in experiment [2] (first compound 1.28 µM), 0.566. Moreover, the relative viability in experiment [3] (0.0128 µM) stood at 0.964; in experiment [3] (0.04048 µM), 0.766; in experiment [3] (0.128 µM), 0.858; in experiment [3] (1.28 µM), 0.721; in experiment [4] (0.01 µM), 0.937; in experiment [4] (0.03162 µM), 0.803. The relative viability in experiment [4] (0.1 µM) turned out to be 0.724; in experiment [4] (0.3162 µM), 0.927.

As for SK-MES-1, the relative viability in experiment [1] (first compound 0.01 µM) was 0.57; in experiment [1] (first compound 0.03162 µM) it was 0.565; in experiment [1] (first compound 0.1 µM), 0.526; in experiment [1] (first compound 0.3162 µM), 0.493; in experiment [5] (first compound 0.0128 µM), 1.37; in experiment [5] (first compound 0.04048 µM), 1.39. Also, the relative viability in experiment [5] (first compound 0.128 µM) is 1.14; in experiment [5] (first compound 1.28 µM), 1.15; in experiment [3] (0.0128 µM) it was 1.02; in experiment [3] (0.04048 µM) it was 1.07; in experiment [3] (0.128 µM), 1.01; in experiment [3] (1.28 µM), 0.912. The relative viability stood at 0.998 in experiment [4] (0.01 µM), 0.92 in experiment [4] (0.03162 µM), 0.967 in experiment [4] (0.1 µM) and 0.89 in experiment [4] (0.3162 µM).

In the case of HCC-366, the relative viability in experiment [1] (first compound 0.01 µM) came to 0.304; in experiment [1] (first compound 0.03162 µM), 0.33; in experiment [1] (first compound 0.1 µM), 0.283; in experiment [1] (first compound 0.3162 µM), 0.122; in experiment [2] (first compound 0.0128 µM) it was 0.252; in experiment [2] (first compound 0.04048 µM), 0.221. In addition, the relative viability in experiment [2] (first compound 0.128 µM) was 0.246; in experiment [2] (first compound 1.28 µM), 0.193; in experiment [5] (first compound 0.0128 µM), 1.09; in experiment [5] (first compound 0.04048 µM), 1; in experiment [5] (first compound 0.128 µM), 1.05; in experiment [5] (first compound 1.28 µM), 0.821. The relative viability was 0.995 in experiment [3] (0.0128 µM); 1.04 in experiment [3] (0.04048 µM); 0.977 in experiment [3] (0.128 µM); 0.916 in experiment [3] (1.28 µM); 0.913 in experiment [4] (0.01 µM); 1.03 in experiment [4] (0.03162 µM). In addition, the relative viability in experiment [4] (0.1 µM) was found to be 1.02; in experiment [4] (0.3162 µM), 0.955.

As for 201T, the relative viability in experiment [1] (first compound 0.01 µM) was found to be 0.714; in experiment [1] (first compound 0.03162 µM) it was 0.707; in experiment [1] (first compound 0.1 µM), 0.755; in experiment [1] (first compound 0.3162 µM), 0.795; in experiment [2] (first compound 0.0128 µM), 0.707; in experiment [2] (first compound 0.04048 µM), 0.51. Also, the relative viability in experiment [2] (first compound 0.128 µM) was 0.584; in experiment [2] (first compound 1.28 µM), 0.465; in experiment [5] (first compound 0.0128 µM), 1.27; in experiment [5] (first compound 0.04048 µM), 1.3; in experiment [5] (first compound 0.128 µM) it was 1.22; in experiment [5] (first compound 1.28 µM), 1.03. Further, the relative viability in experiment [3] (0.0128 µM) amounted to 1.02; in experiment [3] (0.04048 µM), 1.03; in experiment [3] (0.128 µM), 0.927; in experiment [3] (1.28 µM), 0.716; in experiment [4] (0.01 µM), 0.984; in experiment [4] (0.03162 µM), 0.918. Besides, the relative viability in experiment [4] (0.1 µM) worked out at 1; in experiment [4] (0.3162 µM), 1.03.

As to HCC-827, the relative viability in experiment [1] (first compound 0.01 µM) stood at 0.557; in experiment [1] (first compound 0.03162 µM) it was 0.488; in experiment [1] (first compound 0.1 µM) it was 0.607; in experiment [1] (first compound 0.3162 µM), 0.641; in experiment [2] (first compound 0.0128 µM) it was 0.211; in experiment [2] (first compound 0.04048 µM), 0.212. In addition, the relative viability in experiment [2] (first compound 0.128 µM) worked out at 0.199; in experiment [2] (first compound 1.28 µM), 0.138; in experiment [5] (first compound 0.0128 µM), 1.01; in experiment [5] (first compound 0.04048 µM), 1.06; in experiment [5] (first compound 0.128 µM), 1.1; in experiment [5] (first compound 1.28 µM), 1.04. Moreover, the relative viability in experiment [3] (0.0128 µM) was 0.98; in experiment [3] (0.04048 µM), 1.03; in experiment [3] (0.128 µM) it was 0.957; in experiment [3] (1.28 µM), 0.753; in experiment [4] (0.01 µM), 1.02; in experiment [4] (0.03162 µM), 1.04. The figures for the relative viability in experiment [4] (0.1 µM) and in experiment [4] (0.3162 µM) were 0.972 and 1.04, respectively.

As for NCI-H647, the relative viability in experiment [1] (first compound 0.01 µM) came to 0.491; in experiment [1] (first compound 0.03162 µM), 0.593; in experiment [1] (first compound 0.1 µM) it was 0.552; in experiment [1] (first compound 0.3162 µM), 0.372; in experiment [2] (first compound 0.0128 µM), 0.503; in experiment [2] (first compound 0.04048 µM) it was 0.602. The relative viability is 0.403 in experiment [2] (first compound 0.128 µM); 0.367 in experiment [2] (first compound 1.28 µM); 1.29 in experiment [5] (first compound 0.0128 µM); 1.18 in experiment [5] (first compound 0.04048 µM); 1.06 in experiment [5] (first compound 0.128 µM); 0.669 in experiment [5] (first compound 1.28 µM). Besides, the relative viability turned out to be 1.09 in experiment [3] (0.0128 µM); 0.961 in experiment [3] (0.04048 µM); 0.88 in experiment [3] (0.128 µM); 0.623 in experiment [3] (1.28 µM); 0.919 in experiment [4] (0.01 µM); 0.88 in experiment [4] (0.03162 µM). For the same cell line, the values for the relative viability in experiment [4] (0.1 µM) and in experiment [4] (0.3162 µM) were 0.962 and 0.884, respectively.

NCI-H2023: the relative viability in experiment [1] (first compound 0.01 µM) is 0.499; in experiment [1] (first compound 0.03162 µM), 0.618; in experiment [1] (first compound 0.1 µM) it was 0.375; in experiment [1] (first compound 0.3162 µM), 0.276; in experiment [5] (first compound 0.0128 µM) it was 0.999; in experiment [5] (first compound 0.04048 µM), 1.06. The relative viability in experiment [5] (first compound 0.128 µM) came out at 1.02; in experiment [5] (first compound 1.28 µM), 0.835; in experiment [3] (0.0128 µM) it was 1.02; in experiment [3] (0.04048 µM), 1.13; in experiment [3] (0.128 µM), 0.923; in experiment [3] (1.28 µM) it was 0.906. The relative viability is 1.07 in experiment [4] (0.01 µM), 0.893 in experiment [4] (0.03162 µM), 0.922 in experiment [4] (0.1 µM) and 0.59 in experiment [4] (0.3162 µM).
